Key:
Assay type in all cases: cell-based
[1] = molecular target: T1, Progesterone Receptor (Homo sapiens, UniProt P06401); assay: Assay for progesterone receptor activity (alkaline phosphatase in T47D cells); conditions: T47D human breast cancer cells, 24 hours at 37° C.; read-out: EC50 (alkaline phosphatase upregulation)
T1 construct: T47D cells were seeded into 96 well plates; endogenous in cells; host or cells: T47D human breast cancer cells
T1 sequence (P06401 1-933): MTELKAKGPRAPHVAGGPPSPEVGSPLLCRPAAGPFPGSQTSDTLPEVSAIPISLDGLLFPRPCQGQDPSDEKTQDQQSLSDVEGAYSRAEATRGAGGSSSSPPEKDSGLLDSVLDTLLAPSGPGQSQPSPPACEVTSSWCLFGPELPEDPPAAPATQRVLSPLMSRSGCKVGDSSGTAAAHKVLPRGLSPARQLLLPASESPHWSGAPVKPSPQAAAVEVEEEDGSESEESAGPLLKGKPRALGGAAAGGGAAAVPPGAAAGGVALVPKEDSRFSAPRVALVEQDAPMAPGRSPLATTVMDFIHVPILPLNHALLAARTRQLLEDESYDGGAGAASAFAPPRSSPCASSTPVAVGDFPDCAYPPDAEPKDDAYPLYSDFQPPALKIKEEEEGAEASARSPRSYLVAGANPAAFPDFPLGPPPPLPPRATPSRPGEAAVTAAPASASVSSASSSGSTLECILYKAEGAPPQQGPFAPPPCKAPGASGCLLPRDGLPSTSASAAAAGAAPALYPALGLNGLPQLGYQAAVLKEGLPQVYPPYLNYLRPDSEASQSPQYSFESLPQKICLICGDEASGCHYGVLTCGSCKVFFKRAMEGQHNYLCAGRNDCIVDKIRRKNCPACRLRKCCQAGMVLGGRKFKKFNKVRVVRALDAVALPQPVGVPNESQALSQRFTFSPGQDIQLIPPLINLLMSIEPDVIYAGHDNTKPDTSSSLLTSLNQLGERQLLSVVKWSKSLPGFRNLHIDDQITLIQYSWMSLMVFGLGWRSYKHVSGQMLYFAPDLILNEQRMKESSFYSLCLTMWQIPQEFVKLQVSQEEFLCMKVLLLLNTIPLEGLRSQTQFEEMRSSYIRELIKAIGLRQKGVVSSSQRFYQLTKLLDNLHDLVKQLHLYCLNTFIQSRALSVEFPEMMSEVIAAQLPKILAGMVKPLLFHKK

[2] = molecular target: T2, glucocorticoid receptor (Homo sapiens, UniProt P04150); assay: NF-κB transrepression reporter assay (ELAM promoter-sPAP) in A549 cells; conditions: compound 1 hour at 37° C., then TNF 10 ng/ml for 16 hours, read-out: EC50 (transrepressive activity)
T2 construct: A549 cells stably transfected with a reporter gene; endogenous in cells; host or cells: A549 cells (stably transfected with a reporter gene only)
T2 sequence (P04150 1-777): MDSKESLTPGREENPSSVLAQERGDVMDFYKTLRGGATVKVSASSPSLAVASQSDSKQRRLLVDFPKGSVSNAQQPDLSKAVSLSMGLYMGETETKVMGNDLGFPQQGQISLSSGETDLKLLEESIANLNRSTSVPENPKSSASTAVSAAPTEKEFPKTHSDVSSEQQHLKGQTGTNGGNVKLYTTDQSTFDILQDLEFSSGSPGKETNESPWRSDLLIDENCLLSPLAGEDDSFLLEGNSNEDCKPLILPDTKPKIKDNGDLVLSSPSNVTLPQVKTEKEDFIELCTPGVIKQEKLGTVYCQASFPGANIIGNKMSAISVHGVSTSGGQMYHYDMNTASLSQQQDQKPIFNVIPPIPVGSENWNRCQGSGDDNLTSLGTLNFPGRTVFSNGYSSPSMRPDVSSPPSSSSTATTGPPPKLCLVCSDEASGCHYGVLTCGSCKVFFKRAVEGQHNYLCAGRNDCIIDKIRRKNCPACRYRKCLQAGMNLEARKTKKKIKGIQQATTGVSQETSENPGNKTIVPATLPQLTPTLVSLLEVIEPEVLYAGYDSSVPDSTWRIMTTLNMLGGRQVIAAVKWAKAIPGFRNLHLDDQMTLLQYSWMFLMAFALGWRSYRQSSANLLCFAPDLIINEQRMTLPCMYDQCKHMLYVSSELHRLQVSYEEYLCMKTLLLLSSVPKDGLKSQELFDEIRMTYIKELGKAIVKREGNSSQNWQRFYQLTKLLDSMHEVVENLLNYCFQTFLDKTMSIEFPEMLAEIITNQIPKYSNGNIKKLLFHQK
Procedure: The functional assay based on that described by K. P. Ray et al., Biochem J. (1997), 328, 707-715 provides a measure of transrepressive activity of a glucocorticoid agonist. A549 cells stably transfected with a reporter gene containing the NF-κB responsive elements from the ELAM gene promoter coupled to sPAP (secreted alkaline phosphatase) are treated with test compounds at appropriate doses for 1 hour at 37° C. The cells are then stimulated with tumour necrosis factor (TNF, 10 ng/ml) for 16 hours, at which time the amount of alkaline phosphatase produced is measured by a standard colourimetric assay. Dose response curves are constructed from which EC50 values may be estimated.

[3] = molecular target: T2, glucocorticoid receptor; assay: MMTV-LTR renilla luciferase transactivation reporter assay in A549 cells; conditions: 6 hour at 37° C., read-out: maximal response relative to Dexamethasone (100%)
Procedure: The functional assay based on that described by R. J. H. Austin et al., Eur Resp J. (2002), 20, 1386-1392 measures the ability of compounds to directly transactivate gene expression. A549 cells stably transfected with a reporter gene containing the glucocorticoid responsive region of the mouse mammary tumour virus long terminal repeat (MMTV-LTR) coupled to renilla luciferase were treated with test compounds at appropriate doses for 6 hour at 37° C. The amount of luciferase activity present within the cells is then determined by measuring the light emitted following incubation with a suitable substrate.

In the case of `C[C@@H]1C[C@H]2[C@@H]3C[C@H](F)C4=CC(=O)C=C[C@]4(C)[C@@]3(F)[C@@H](O)C[C@]2(C)[C@@]1(OC(=O)C1C(C)(C)C1(C)C)C(=O)OCC#N` [Example 1, 6α,9α-Difluoro-11β-hydroxy-16α-methyl-3-oxo-17α-(2,2,3,3-tetramethycyclopropylcarbonyl)oxy-androsta-1,4-diene-17β-carboxylic acid cyanomethyl ester], the EC50 [1] is reported as > 100 nM, the EC50 [2] is reported as < 0.1 nM and the Emax [3] is reported as < 5%.

From patent US7291609B2, “Specific glucocorticosteroid compound having anti-inflammatory activity” (Glaxo Group Limited, priority 2003, dated 2007)
